# According to patent US7892767B2, “Phosphospecific chemokine receptor antibodies” (Washington University in St. Louis, priority 2005, dated 2011):
# How the values were obtained:
# [1] = system: Daoy medulloblastoma cells; test: Viable cell number by trypan blue exclusion, Daoy cells; format: cell-based, human; conditions: Rolipram 200 μM, AMD 3465 2.5 μg/ml; for effect on CXCL12 induced growth: with CXCL12 1 μg/ml, Forskolin 10 μM
# Method: (§1) Brain tumor cell cultures. Cells were cultured in αMEM (Invitrogen, Carlsbad, Calif.) supplemented with 10% FCS (Biomedia, Foster City, Calif.) in the presence of penicillin streptomycin at 37° C. with 5% CO2.
# (§2) Growth factor and drug treatment. Following serum-starvation for 24 hours, astrocytes, granule cells, U87 cells and Daoy cells, were treated with 1 μg/ml CXCL12 (PeproTech), […] AMD3465 (kind gift from Simon Fricker, AnorMED, Langley, BC, Canada) (200 μM Rolipram (Sigma), or 10 μM Forskolin (Sigma) as indicated.
# Daoy xenografts [2] = test: Intracranial Daoy xenograft growth by bioluminescence imaging; format: in vivo, mouse
# U87 GBM xenografts = test: Intracranial U87 xenograft growth by bioluminescence imaging; format: in vivo, mouse
# U87 glioblastoma cells [3] = test: Viable cell number by trypan blue exclusion, U87 cells; format: cell-based, human; conditions: Rolipram 200 μM, AMD 3465 2.5 μg/ml; for effect on CXCL12 induced growth: with CXCL12 1 μg/ml, Forskolin 10 μM
# Method: as §1, §2
# [4] = system: PDE4A-expressing U87 cells; test: Viable cell number, PDE4A-expressing U87 cells; format: cell-based, human; conditions: CXCL12 1 μg/ml, AMD 3465 2.5 μg/ml, Rolipram 200 μM
# Method: (§3) PDE4A expression. U87 and Daoy cells (15,000 cells) were transiently transfected for 48 h with a plasmid encoding a transgene for the tet-off transactivator (tTA) alone (kind gift from Dr. Louis Muglia, Washington University School of Medicine, St. Louis, Mo.), a plasmid containing a transgene for tet-off regulated expression of phosphodiesterase 4A (PDE4A) alone (kind gift from Dr. James Cherry, Boston University, Boston, Mass.), or a combination of both plasmids, using lipofectamine (Invitrogen) according to the manufacturer's instructions. Plasmid DNA (2 μg) was mixed with lipofectamine (5 μl) per 35 mm^2 dish. Transfection proceeded for 9 hours prior to exchanging transfection media for αMEM supplemented with 10% FCS.
# [5] = system: Daoy medulloblastoma cells; test: Intracellular cAMP by ELISA, Daoy medulloblastoma cells; format: cell-based, human
# Method: as §2
# (§4) cAMP measurement in cell culture. cAMP concentration was measured using a Correlated-EIA™. Enzyme Immunoassay Kit (Assay Designs Inc. MI) according to the manufacturer's instructions. Briefly, U87 or Daoy cells were serum-starved for 24 hours, and treated with CXCL12 (1 μg/ml), Rolipram (200 μM), or forskolin (10 μM). Cells were lysed in 0.1M HCL and particulate matter was removed by centrifugation at >600×g for 10 min. The supernatants were dried down and resuspended in assay buffer.
# (§5) Determination of cAMP concentration. Competitive immunoassay for cAMP concentration was performed exactly as directed by the manufacturer. Absorbance at 405 nm was measured and cAMP concentrations were determined by calculation based on a standard curve. Protein concentrations were measured by colormetric assay (Bio-Rad, Hercules, Calif.) according to the manufacturer's directions. cAMP values were normalized to protein for each sample individually.
# CXCR4 = CXCR4 (Homo sapiens, UniProt P61073); conditions: compared with AMD 3100, reference (84); cited from earlier work
# CXCR4, sequence (P61073 whole entry, species assumed): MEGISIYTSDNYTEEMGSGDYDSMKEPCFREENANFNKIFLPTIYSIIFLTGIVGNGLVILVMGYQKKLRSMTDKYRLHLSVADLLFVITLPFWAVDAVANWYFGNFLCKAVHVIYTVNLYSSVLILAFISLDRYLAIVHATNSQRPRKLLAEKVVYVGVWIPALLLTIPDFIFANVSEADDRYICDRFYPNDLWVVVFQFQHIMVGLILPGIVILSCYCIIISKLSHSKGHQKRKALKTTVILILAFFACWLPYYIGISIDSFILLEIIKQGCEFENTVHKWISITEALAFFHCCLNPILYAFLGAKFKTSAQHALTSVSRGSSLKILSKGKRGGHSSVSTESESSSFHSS
# [6] = system: PDE4A-expressing Daoy cells; test: Viable cell number, PDE4A-expressing Daoy cells; format: cell-based, human; conditions: CXCL12 1 μg/ml, AMD 3465 2.5 μg/ml, Rolipram 200 μM
# Method: as §3
# Daoy xenografts [7] = test: cAMP in xenograft tumor tissue by ELISA; format: in vivo, mouse; conditions: same treatment paradigms as growth studies, EGFP-luciferase xenografts
# Method: cAMP measurement in tumor tissue. EGFP-expressing tumor tissue was removed under direct fluorescence microscopy and frozen in liquid nitrogen. Frozen tissue was weighed and homogenized with 10 volumes of 10% ice-cold trichloroacetic acid, then centrifuged for 10 min at 4000 rpm to remove precipitate. The supernatant was washed three times with 8 volumes of water-saturated ether. The aqueous phase was dried down and resuspended in cAMP assay buffer.
# as §5
# To ascertain whether the in vivo anti-tumor effects of Rolipram and AMD 3465 were correlated with increases in intratumoral cAMP, we repeated the treatment paradigms with Daoy xenografts that had been engineered to express both enhanced green fluorescent protein (EGFP) and firefly luciferase. […] Tumor tissue was easily visualized in situ under direct fluorescence microscopy (FIG. 20A). Cyclic AMP was extracted from GFP positive tissue, and cAMP levels were measured by ELISA.
# U87 glioblastoma cells [8] = test: Intracellular cAMP by ELISA, U87 glioblastoma cells; format: cell-based, human
# Method: as §2, §4, §5
# [9] = added to chemotherapy and radiation therapy; decreased consciousness and increased seizure activity; reference (109); cited from earlier work
# [10] = Tolerability in xenograft-bearing mice; format: in vivo, mouse; conditions: 5 μg/g/day in the drinking water
# [11] = in vivo; cited from earlier work
# [12] = continuous subcutaneous infusion 50 μg/day (2.5 mg/kg/day) for 5 weeks
# [13] = AMD 3465 2.5 μg/ml coadministered with CXCL12 1 μg/ml
# [14] = 5 μg/g/day in the drinking water, from two weeks after tumor cell injection
# [15] = Rolipram 200 μM or Forskolin 10 μM, not abrogated by CXCL12
structure (smiles),measurement,setting,value
c1ccc(CNCc2ccc(CN3CCCNCCNCCCNCC3)cc2)nc1 [AMD 3465],effect on cell number alone,[1],no significant effect
same,effect on CXCL12 induced growth,[1],completely blocked
same,inhibition of xenograft growth as compared to controls,Daoy xenografts [2]; [12],85%
same,inhibition of xenograft growth as compared to controls,U87 GBM xenografts; [12],80%
same,effect on cell number alone,U87 glioblastoma cells [3],no significant effect
same,effect on CXCL12 induced growth,U87 glioblastoma cells [3],completely blocked
same,effect on cell number,[4],no effect
same,effect on cAMP levels alone,[5]; AMD 3465 2.5 μg/ml,little to no effect
same,CXCL12-induced suppression of cAMP,[5]; [13],blocked
same,affinity for CXCR4,CXCR4,greater affinity
same,effect on cell number,[6],no effect
same,amount of cAMP within tumor tissue,Daoy xenografts [7],significant increase
same,effect on cAMP levels alone,U87 glioblastoma cells [8]; AMD 3465 2.5 μg/ml,little to no effect
same,CXCL12-induced suppression of cAMP,U87 glioblastoma cells [8]; [13],blocked
CC(=O)CCCCn1c(=O)c2c(ncn2C)n(C)c1=O [Pentoxiphyllin],toxicity,[9],excessive toxicity
COc1ccc(C2CNC(=O)C2)cc1OC1CCCC1 (centres unmarked) [Rolipram],animal weights compared to the control group,[10]; data not shown,better maintained
same,appearance of treated animals,[10]; throughout the treatment period,appeared well
same,effect on cell number alone,[1],little to no effect
same,effect on CXCL12 induced growth,[1],completely blocked
same,inhibition of xenograft growth,Daoy xenografts [2]; [14],58%
same,inhibition of xenograft growth,U87 GBM xenografts; [14],96%
same,blood brain barrier passage,[11],crosses an intact blood brain barrier
same,effect on cell number alone,U87 glioblastoma cells [3],little to no effect
same,effect on CXCL12 induced growth,U87 glioblastoma cells [3],completely blocked
same,effect on cell number,[4],growth inhibitory effect
same,change in intracellular cAMP,[5]; [15],predictable increases
same,effect on cell number,[6],growth inhibitory effect
same,amount of cAMP within tumor tissue,Daoy xenografts [7],significant increase
same,change in intracellular cAMP,U87 glioblastoma cells [8]; [15],predictable increases
